The source of these data is article PMC10254314 (2023).

The test system of experiment [1] is poly A–poly U (pApU) (RNA, polymer) A/U. As to the kind of experiment: UV thermal melting at 260 nm. To be noted: Na+ (sodium cacodylate, I = 0.05 M), pH 7, r = [compound]/[polynucleotide] = 0.3, polynucleotide 2 × 10^-5 M, per base.
Experiment [2] deals with poly dAdT–poly dAdT (AT-DNA) (DNA, polymer) AT. As to the kind of experiment: UV/vis titration, Scatchard (McGhee–von Hippel) fit. To be noted: Na+ (sodium cacodylate, I = 0.05 M), pH 7.0, n fixed 0.2, per base.
The test system is the same in experiment [3]. The experiment is described as follows: UV thermal melting at 260 nm. To be noted: Na+ (sodium cacodylate, I = 0.05 M), pH 7, r = [compound]/[polynucleotide] = 0.3, polynucleotide 2 × 10^-5 M, per base.

Structures are written as SMILES.

With `COc1cc2c(cc1OC)SC(c1ccc(NCc3cccc(C)c3)cc1)=[N+](C)C2`, the thermal shift (ΔTm) in experiment [1] is −1.5 ± 0.5 °C.

For the compound `COc1cc2c(cc1OC)SC(c1ccc(NCc3ccc(Cl)cc3)cc1)=[N+](C)C2`, the ΔTm entry in experiment [1] is “+1 ± 0.5 °C”.

In the case of `COc1ccc(Nc2ccc(C3=[N+](C)Cc4cc(Nc5ccc(OC)cc5)ccc4S3)cc2)cc1`, the results for the ΔTm result in experiment [1] and in experiment [3] were “+3.5 ± 0.5 °C” and −1.5 ± 0.5 °C, respectively. In addition, the logKs in experiment [2] stood at 4.9.

Consider `COc1ccc(Nc2ccc(C3=[N+](C)Cc4cccc(Nc5ccc(OC)cc5)c4S3)cc2)cc1`, for which the figures for the ΔTm in experiment [1] and in experiment [3] were −1.2 ± 0.5 °C and −2.1 ± 0.5 °C, respectively. The logKs in experiment [2] was determined as 4.9.
